Test results: patent publication US20260022142A1, “MACROCYCLIC IMMUNOMODULATORS” (Bristol-Myers Squibb Company, priority 2022, published 2026)
Bridge positions count the residues as written; N and C are the ends. Square brackets hold non-standard residues; d marks the D form. Peptide text beside a SMILES is read from it. * marks the point of attachment. Bip = N[C@@H](Cc1ccc(-c2ccccc2)cc1)C(=O)O; NH(CH2)14COOH = O=C(O)CCCCCCCCCCCCCCN*; Phe(3-Me) = Cc1cccc(C[C@H](N)C(=O)O)c1; NH(CH2)12COOH = O=C(O)CCCCCCCCCCCCN*; Val(3-OH) = CC(C)(O)[C@H](N)C(=O)O; Cha = N[C@@H](CC1CCCCC1)C(=O)O; Carboxymethyl = O=C(O)C*; Orn = NCCC[C@H](N)C(=O)O; Aun = NCCCCCCCCCCC(=O)O; Dab = NCC[C@H](N)C(=O)O; Nva = CCC[C@H](N)C(=O)O; AEEA = NCCOCCOCC(=O)O

The compounds below were run against T1, PD-1/PD-L1 interaction (PE-labeled human PD-L1-Ig binding to Jurkat cell line over-expressing human PD-1) (Homo sapiens, UniProt Q15116) (assay: Jurkat-PD-1 Cell Binding High-Content Screening Assay (CBA)). Details: Jurkat cell line over-expressing human PD-1; PE-labeled PD-L1-Ig 20 nM final; read-out: Jurkat hPD1-PDL1 IC50.
T1 construct: expressed in transfected cells; host or cells: Jurkat
T1 sequence (Q15116 25-288): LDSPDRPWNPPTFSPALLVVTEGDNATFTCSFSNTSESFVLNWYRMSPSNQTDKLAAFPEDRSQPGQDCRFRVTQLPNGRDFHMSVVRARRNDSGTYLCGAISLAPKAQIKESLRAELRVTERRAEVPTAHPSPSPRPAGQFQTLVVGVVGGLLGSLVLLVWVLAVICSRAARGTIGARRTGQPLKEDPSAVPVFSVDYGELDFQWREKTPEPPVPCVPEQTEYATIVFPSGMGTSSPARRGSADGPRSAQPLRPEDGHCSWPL
Type: cell-based
Outline: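 Human PD-L1-Ig carrying a covalent PE label on its Ig tag serves as the probe, applied at 20 nM final to compound-treated (2 h, 37° C) Jurkat-hPD-1 cells in medium with 10% fetal calf serum. After one hour, fixation and nuclear staining precede high-content image analysis.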
Work on `Cc1cccc(C[C@@H]2NC(=O)[C@H](CC(=O)O)NC(=O)[C@H](Cc3ccc(OCC(=O)O)cc3)NC(=O)[C@H](CCCNC(=N)N)NC(=O)CSC[C@@H](C(=O)N[C@@H](CCN)C(=O)NCCCCCCCCCCC(=O)O)NC(=O)[C@H](CCC(=O)O)NC(=O)[C@H](C(C)(C)O)NC(=O)[C@H](CC3CCCCC3)NC(=O)[C@H](CCN)NC(=O)[C@@H](CC(C)C)NC(=O)[C@H](CCCN)NC(=O)[C@H](Cc3ccc(OCC(=O)O)cc3)NC(=O)[C@H](Cc3ccc(-c4ccccc4)cc3)NC(=O)[C@H](Cc3ccc(OCC(=O)O)cc3)NC2=O)c1` [Compound 2863] ({CH2CO}-RY(Carboxymethyl)D[Phe(3-Me)]Y(Carboxymethyl)[Bip]Y(Carboxymethyl)[Orn][dL][Dab][Cha][Val(3-OH)]EC[Dab][Aun]-OH; thioether N-14) yielded an IC50 of 8.7 nM.
In the case of `Cc1cccc(C[C@@H]2NC(=O)[C@H](CC(=O)O)NC(=O)[C@H](Cc3ccc(OCC(=O)O)cc3)NC(=O)[C@H](CCCNC(=N)N)NC(=O)CSC[C@@H](C(=O)N[C@@H](CCN)C(=O)NCCCCCCCCCCC(=O)O)NC(=O)[C@H](CC(=O)O)NC(=O)[C@H](C(C)(C)O)NC(=O)[C@H](CC3CCCCC3)NC(=O)[C@H](CCN)NC(=O)[C@@H](CC(C)C)NC(=O)[C@H](CCCN)NC(=O)[C@H](Cc3ccc(OCC(=O)O)cc3)NC(=O)[C@H](Cc3ccc(-c4ccccc4)cc3)NC(=O)[C@H](Cc3ccc(OCC(=O)O)cc3)NC2=O)c1` [Compound 2864] ({CH2CO}-RY(Carboxymethyl)D[Phe(3-Me)]Y(Carboxymethyl)[Bip]Y(Carboxymethyl)[Orn][dL][Dab][Cha][Val(3-OH)]DC[Dab][Aun]-OH; thioether N-14), the IC50 is reported as 3.3 nM.
`CCC[C@@H]1NC(=O)CSC[C@@H](C(=O)N[C@@H](CCN)C(=O)NCCOCCOCC(=O)NCCOCCOCC(=O)NCCCCCCCCCCCCCCC(=O)O)NC(=O)[C@H](CO)NC(=O)[C@H](C(C)(C)O)NC(=O)[C@H](CC2CCCCC2)NC(=O)[C@H](CCN)NC(=O)[C@@H](CC(C)C)NC(=O)[C@H](CCCN)NC(=O)[C@H](Cc2ccc(OCC(=O)O)cc2)NC(=O)[C@H](Cc2ccc(-c3ccccc3)cc2)NC(=O)[C@H](Cc2ccc(OCC(=O)O)cc2)NC(=O)[C@H](Cc2cccc(C)c2)NC(=O)[C@H](CC(=O)O)NC(=O)[C@H](Cc2ccc(OCC(=O)O)cc2)NC1=O` [Compound 2866] ({CH2CO}-[Nva]Y(Carboxymethyl)D[Phe(3-Me)]Y(Carboxymethyl)[Bip]Y(Carboxymethyl)[Orn][dL][Dab][Cha][Val(3-OH)]SC[Dab][AEEA][AEEA]-{NH(CH2)14COOH}; thioether N-14) gave an IC50 of 101 nM.
For `CCC[C@@H]1NC(=O)CSC[C@@H](C(=O)N[C@@H](CCN)C(=O)NCCOCCOCC(=O)NCCCCCCCCCCCCC(=O)O)NC(=O)[C@H](CO)NC(=O)[C@H](C(C)(C)O)NC(=O)[C@H](CC2CCCCC2)NC(=O)[C@H](CCN)NC(=O)[C@@H](CC(C)C)NC(=O)[C@H](CCCN)NC(=O)[C@H](Cc2ccc(OCC(=O)O)cc2)NC(=O)[C@H](Cc2ccc(-c3ccccc3)cc2)NC(=O)[C@H](Cc2ccc(OCC(=O)O)cc2)NC(=O)[C@H](Cc2cccc(C)c2)NC(=O)[C@H](CC(=O)O)NC(=O)[C@H](Cc2ccc(OCC(=O)O)cc2)NC1=O` [Compound 2867] ({CH2CO}-[Nva]Y(Carboxymethyl)D[Phe(3-Me)]Y(Carboxymethyl)[Bip]Y(Carboxymethyl)[Orn][dL][Dab][Cha][Val(3-OH)]SC[Dab][AEEA]-{NH(CH2)12COOH}; thioether N-14), the IC50 was 11.1 nM.
For `CCC[C@@H]1NC(=O)CSC[C@@H](C(=O)N[C@@H](CCN)C(=O)NCCOCCOCC(=O)NCCCCCCCCCCCCCCC(=O)O)NC(=O)[C@H](CO)NC(=O)[C@H](C(C)(C)O)NC(=O)[C@H](CC2CCCCC2)NC(=O)[C@H](CCN)NC(=O)[C@@H](CC(C)C)NC(=O)[C@H](CCCN)NC(=O)[C@H](Cc2ccc(OCC(=O)O)cc2)NC(=O)[C@H](Cc2ccc(-c3ccccc3)cc2)NC(=O)[C@H](Cc2ccc(OCC(=O)O)cc2)NC(=O)[C@H](Cc2cccc(C)c2)NC(=O)[C@H](CC(=O)O)NC(=O)[C@H](Cc2ccc(OCC(=O)O)cc2)NC1=O` [Compound 2868] ({CH2CO}-[Nva]Y(Carboxymethyl)D[Phe(3-Me)]Y(Carboxymethyl)[Bip]Y(Carboxymethyl)[Orn][dL][Dab][Cha][Val(3-OH)]SC[Dab][AEEA]-{NH(CH2)14COOH}; thioether N-14), the IC50 was 467 nM.
`Cc1cccc(C[C@@H]2NC(=O)[C@H](CC(=O)O)NC(=O)[C@H](Cc3ccc(OCC(=O)O)cc3)NC(=O)[C@H](CCN)NC(=O)CSC[C@@H](C(=O)N[C@@H](CCN)C(=O)NCCOCCOCC(=O)NCCCCCCCCCCCCC(=O)O)NC(=O)[C@H](Cc3c[nH]cn3)NC(=O)[C@H](C(C)(C)O)NC(=O)[C@H](CC3CCCCC3)NC(=O)[C@H](CCN)NC(=O)[C@@H](CC(C)C)NC(=O)[C@H](CCCN)NC(=O)[C@H](Cc3ccc(OCC(=O)O)cc3)NC(=O)[C@H](Cc3ccc(-c4ccccc4)cc3)NC(=O)[C@H](Cc3ccc(OCC(=O)O)cc3)NC2=O)c1` [Compound 2871] ({CH2CO}-[Dab]Y(Carboxymethyl)D[Phe(3-Me)]Y(Carboxymethyl)[Bip]Y(Carboxymethyl)[Orn][dL][Dab][Cha][Val(3-OH)]HC[Dab][AEEA]-{NH(CH2)12COOH}; thioether N-14) gave an IC50 of 16.9 nM.
`Cc1cccc(C[C@@H]2NC(=O)[C@H](CC(=O)O)NC(=O)[C@H](Cc3ccc(OCC(=O)O)cc3)NC(=O)[C@H](CCN)NC(=O)CSC[C@@H](C(=O)N[C@@H](CCN)C(=O)NCCOCCOCC(=O)NCCCCCCCCCCCCCCC(=O)O)NC(=O)[C@H](Cc3c[nH]cn3)NC(=O)[C@H](C(C)(C)O)NC(=O)[C@H](CC3CCCCC3)NC(=O)[C@H](CCN)NC(=O)[C@@H](CC(C)C)NC(=O)[C@H](CCCN)NC(=O)[C@H](Cc3ccc(OCC(=O)O)cc3)NC(=O)[C@H](Cc3ccc(-c4ccccc4)cc3)NC(=O)[C@H](Cc3ccc(OCC(=O)O)cc3)NC2=O)c1` [Compound 2872] ({CH2CO}-[Dab]Y(Carboxymethyl)D[Phe(3-Me)]Y(Carboxymethyl)[Bip]Y(Carboxymethyl)[Orn][dL][Dab][Cha][Val(3-OH)]HC[Dab][AEEA]-{NH(CH2)14COOH}; thioether N-14) was tested, and the IC50 was 83.8 nM.
With `Cc1cccc(C[C@@H]2NC(=O)[C@H](CC(=O)O)NC(=O)[C@H](Cc3ccc(OCC(=O)O)cc3)NC(=O)[C@H](CCN)NC(=O)CSC[C@@H](C(=O)N[C@@H](CCN)C(=O)NCCOCCOCC(=O)NCCOCCOCC(=O)NCCCCCCCCCCCCC(=O)O)NC(=O)[C@H](CO)NC(=O)[C@H](C(C)(C)O)NC(=O)[C@H](CC3CCCCC3)NC(=O)[C@H](Cc3c[nH]cn3)NC(=O)[C@@H](CC(C)C)NC(=O)[C@H](CCCN)NC(=O)[C@H](Cc3ccc(OCC(=O)O)cc3)NC(=O)[C@H](Cc3ccc(-c4ccccc4)cc3)NC(=O)[C@H](Cc3ccc(OCC(=O)O)cc3)NC2=O)c1` [Compound 2873] ({CH2CO}-[Dab]Y(Carboxymethyl)D[Phe(3-Me)]Y(Carboxymethyl)[Bip]Y(Carboxymethyl)[Orn][dL]H[Cha][Val(3-OH)]SC[Dab][AEEA][AEEA]-{NH(CH2)12COOH}; thioether N-14) the IC50 was 34.5 nM.
